What is called ED50 is the dose that gives a 50% effect, or the effect in half of the subjects. As a reminder, the AUC is the area under the concentration-time curve, a measure of exposure. One may read the CL/F as clearance divided by bioavailability, as obtained after extravascular dosing. What is called Cmax is the maximum level reached in the sampled fluid or tissue.

The values below come from patent publication US11352371B2, “Thienopyrimidine derivatives as ACC inhibitors and uses thereof” (Gilead Sciences, Inc., priority 2019, dated 2022).

Data set [1] relates to De Novo Lipogenesis (DNL) in liver. Kind of data set: In vivo De Novo Lipogenesis study. As to conditions: Rattus norvegicus; male SD rats, single p.o. dose, acetate i.p. 3h post-dose, livers collected 1h later; read-out: effective dose that decreased in vivo DNL by 50% (ED50). Details: species or system Male Sprague Dawley (SD) rats. As to the method:
The DNL inhibitory activity of the compound of Example 1 was assessed in vivo as follows.
The studies were performed at Covance Laboratories (Madison, Wis.) in compliance with Institutional Animal Care and Use Committee protocols. Male Sprague Dawley (SD) rats were purchased from Envigo RMS, INC and were acclimatized for 7 days prior to study initiation. Animals were provided ad libitum access to food and water for the duration of the study. On the day of the experiment, animals were randomized into dose groups (n=6 rats/group) based on body weight and received a single p.o dose of vehicle (0.1% Tween 80 in water, pH 7.5-8.0) or a dose range of the compound of Example 1 (0.1 μg/kg-1 mg/kg). 3h post-dose (Example 1), the animals received a single i.p bolus of […] (Perkin Elmer, 32 μCi/animal) and were sacrificed 1h later, and livers were collected for DNL analysis. An approx. 0.75 g piece of liver was saponified at 70° C. for 120 min in 1.5 mL of 2.5M NaOH followed by addition of 2.5 mL of ethanol, vigorous mixing. […] Residual ether fractions were dissolved in at least 5 mL of Ultima Gold XR scintillation fluid and analyzed by liquid scintillation counting (LSC). The resulting dpm ([…]) values were normalized to tissue weight and the data were expressed as a percent of vehicle. […]

Data set [2] can be described thus: Liver partitioning / plasma PK study with and without rifampicin (pan-OATP inhibitor). In kind it is in vivo, cynomolgus monkeys. The procedure: (§1) To further investigate the liver partitioning properties of the compound of Example 1, the compound was co-administered with rifampicin (RIF, pan-OATP inhibitor) in cynomolgus monkeys in vivo and hepatic uptake experiments were performed in monkey hepatocytes in vitro. […] Therefore the coadministration experiments as described below in more detail were conducted to administer Example 1 compound orally (5 mg/kg) in the absence and presence of IV administration of RIF (30 mg/kg).
(§2) To assess the OATP (organic anion transporting polypeptides)-mediated liver specific delivery of the Example 1 compound, plasma pharmacokinetics (PK) was evaluated in cynomolgus monkeys. The in-life phase of the cyno PK studies was conducted at Covance Laboratories (Madison, Wis.). Animals were housed and handled in accordance with the Guide for the Care and Use of Laboratory Animals, Institute of Laboratory Animal Resources. The protocols were reviewed and approved by the Institutional Animal Care and Use Committees (IACUC). Male Cynomolgus monkeys weighing approximately 3 kg were used for the in-life portion of the PK studies. The animals were fasted overnight prior to dosing and up to 4 hours after dosing. The animals were administered with the test compound (Example 1) alone or coadministered with 30 mg/kg rifampicin prior to test compound administration at 5 mg/kg via oral gavage (3 monkeys per group). The aqueous formulation contains dimethyl sulfoxide, kolliphor, labrasol and propylene glycol. Approximately 0.5 mL blood samples were collected from each animal and analyzed for test compound (Example 1) concentrations. For LC-MS/MS analysis, plasma samples were prepared through protein precipitation extraction and analyzed on a Sciex API 5500 LC-MS/MS instrument (Applied Biosystems, Foster City, Calif.). Analyte was eluted on a 1.7 μm 50×2.1 mm Acquity UPLC BEH C18 column (Waters, Milford, Mass.) using mobile phases containing 0.1% formic acid and a linear gradient from 60% to 95% acetonitrile at a flow rate of 800 μL/min. Noncompartmental pharmacokinetic parameters were calculated using Phoenix 32 (Pharsight Corporation, Mountain View, Calif.). […]

In data set [3] the test system is OATP. The description is as above. The following applies: male, cynomolgus monkey, plasma, with rifampicin 30 mg/kg IV (pan-OATP inhibitor), cynomolgus monkeys, 5 mg/kg oral, Pretreatment with Rifampicin 30 mg/kg. Type of data set: in vivo, cynomolgus monkeys. As to the method:
as §1, §2

Data set [4] can be described thus: Preliminary study of systemic blood clearance after intravenous administration. Type of data set: in vivo. As to conditions: monkeys, preliminary studies.
The subject of data set [5] is monkey hepatocytes. Put plainly: In vitro hepatic uptake in monkey hepatocytes. In kind it is in vitro ADME. As to conditions: data not shown. The procedure:
as §1

The mark [6] stands for this setting: decrease (↓) with rifampicin pretreatment vs no pretreatment.
Setting [7] is: increase (↑) with rifampicin pretreatment vs no pretreatment.
The mark [8] stands for this setting: male, cynomolgus monkey, plasma, cynomolgus monkeys, 5 mg/kg oral, No-Pre-treatment.

In the case of `COc1ccccc1[C@H](Cn1c(=O)n(C(C)(C)C(=O)NS(=O)(=O)C2(C)CC2)c(=O)c2c(C)c(-c3ncco3)sc21)O[C@@H]1C[C@H]2CC[C@@H](C1)O2` [Example 1, 2-(1-((R)-2-(((1R,3s,5S)-8-oxabicyclo[3.2.1]octan-3-yl)oxy)-2-(2-methoxyphenyl)ethyl)-5-methyl-6-(oxazol-2-yl)-2,4-dioxo-1,4-dihydrothieno[2,3-d]pyrimidin-3(2H)-yl)-2-methyl-N-((1-methylcyclopropyl)sulfonyl)propanamide], the ED50 in data set [1] amounted to 0.08 mg/kg. In addition, in data set [2] (5 mg/kg oral, RIF 30 mg/kg IV), the “plasma exposures with RIF treatment relative to monkeys not treated with RIF” value is “significantly increased”. Also, in data set [2] (setting [6]), the “CL/F Fold-Change” value was “↓ 299” and the “Vz/F Fold-Change” value was “↓ 165”. For the same compound, in data set [2] (setting [7]), the “AUC Fold-Change” value is on record as “↑ 165” and the “Cmax Fold-Change” value is listed as “↑ 86”. In data set [2] (setting [8]), the AUC was 0.294 µM·h, the CL/F is 748 mL/min/kg and the peak concentration (Cmax) was determined as 0.162 µM. In addition, the Vd/F in data set [2] (male, cynomolgus monkey, plasma, cynomolgus monkeys, 5 mg/kg oral, No-Pre-treatment, read-out: Vz/F) was found to be 72.7 L/kg. For the same compound, in data set [3], the AUC was found to be 48.5 µM·h, the CL/F is 2.5 mL/min/kg and the Cmax amounted to 14 µM. For the same compound, the Vd/F in data set [3] (read-out: Vz/F) worked out at 0.44 L/kg. Besides, the systemic blood clearance result in data set [4] is listed as “higher than hepatic blood flow”. In addition, the hepatic uptake result in data set [5] was “strong hepatic uptake”.
